Source: US4895937A, “5-ioso-2-pyrimidinone nucleoside” (The Research Foundation of State University of New York, priority 1988, dated 1990)
Like-named read-outs stand apart in the source and are kept apart here.

What was measured:
HSV-2 = assay: Viral inhibition, HSV-2 (Example 7, method of Example 5); assay type: cell-based, herpes simplex type 2; conditions: Human alphaherpesvirus 2
Procedure: (§1) In accordance with the present invention, 1-(2-Deoxy-β-D-ribofuranosyl)-5-(methylmercapto)-2-pyrimidinone is prepared essentially in accordance with the procedure set forth in "Snythesis and Antiviral Activity of 1-(2-Deoxy-β-D-ribofuranosyl)-5-(methylmercapto)-2-pyrimidinone" by Schroeder and Bardos and Cheng, Volume 24, page 109, January 1981. HeLa cells were infected in 1640 RPMI medium with herpes simplex type 1 (HSV-1) and independently with herpes simplex type 2 (HSV-2) virus at a multiplicity of 5 to 10 plaque forming units per cell. The composition of 1640 RPMI medium is reported in "Biological Activity of 5 Ethyl, 5 Propyl, and 5 Vinyl 2'-Deoxyuridine" by Cheng et al published in Antimicrobial Agents and Chemotherapy, Volume 10, beginning at page 119 (1976). 1640 RPMI medium is commercially available from Gibco Company, Grand Island, N.Y. After 1 hour, virus absorption, the drugs were added. Resulting cultures were analyzed for virus titer at 24 hours post infection a described in the procedure set forth in "Biological Activity of 5-Ethyl, 5-Propyl and 5-Vinyl 2'-uridine" by Cheng et al. The results are set forth in Table 2. The numbers set forth in Table 2 show the number of plaque forming units in the control which contained no methylmercapto compound and the number of units at concentrations of 100, 200 and 400 micromoles of the methylmercapto compound. The results clearly indicate substantial decrease in the number of plaque forming units in the presence of 1-(2-Deoxy-β-D-ribofuranosyl)-5-(methylmercapto)-2-pyrimidinone.
(§2) The above described methyl compound was tested for viral inhibition substantially in accordance with the method of Example 5 except that the concentrations were 50 and 100 micromolar.

HSV-1 = assay: Viral inhibition, HSV-1 (Example 7, method of Example 5); assay type: cell-based, herpes simplex type 1; conditions: Human alphaherpesvirus 1
Procedure: as §1, §2

murine leukemia L 1210 = conditions: cited from earlier work
virus = conditions: literature; cited from earlier work
[1] = test system: BVdU resistant strain of HSV-1; assay: Antiherpes activity, BVdU resistant strain (Example 10); assay type: cell-based; conditions: Human alphaherpesvirus 1, read-out: plaque-forming units as % of control
Procedure: (§3) IPdR and 5-bromo-2-pyrimidinone-2-deoxyribonucleoside (BrPdR) were tested for antiherpes activity according to procedures described by Cheng, Y.-C., et al. Antimicrob. Agents Chemother (1976) 10, 119.

PFA-resistant strains = assay: Antiherpes activity, PFA-resistant strain (Example 10); assay type: cell-based; conditions: 5 μM; read-out: plaque-forming units as % of control
Procedure: as §3

HSV-1 (CLl0l) = assay: Antiherpes activity, HSV-1 (CLl0l) (Example 10); assay type: cell-based
Procedure: as §3

[2] = test system: ACG (S1), acyclovir resistant strain of HSV1; assay: Antiherpes activity, acyclovir resistant strain of HSV1 (S1) (Example 10); assay type: cell-based, HSV-1; conditions: Human alphaherpesvirus 1, read-out: plaque-forming units as % of control
Procedure: as §3

[3] = test system: ACG (Tr7), acyclovir resistant strain of HSV1; assay: Antiherpes activity, acyclovir resistant strain of HSV1 (Tr7) (Example 10); assay type: cell-based, HSV-1; conditions: Human alphaherpesvirus 1, read-out: plaque-forming units as % of control
Procedure: as §3

HSV-1 (KOS) = assay: Antiherpes activity, HSV-1 (KOS) (Example 10); assay type: cell-based
Procedure: as §3

HSV-2 (333) = assay: Antiherpes activity, HSV-2 (333) (Example 10); assay type: cell-based
Procedure: as §3

[4] = test system: HSV-1 and HSV-2 strains (herpes virus group); assay: Antiherpes activity, overall statement; assay type: cell-based
Procedure: as §3

HSV-2 (CEU-G) = assay: Antiherpes activity, HSV-2 (CEU-G) (Example 10); assay type: cell-based; conditions: Human alphaherpesvirus 2, read-out: plaque-forming units as % of control
Procedure: as §3

HSV-2 (Strain 333) [5] = assay: Antiviral activity in HSV-2 infected mice by various routes (Example 9); assay type: in vivo, Swiss-Webster female mice; conditions: for % ILS: excluding 45 day survivors
Procedure: The drugs were administered once a day for five days or twice daily (12 hour intervals) for 2.5 days beginning 24 hours postinfection. Mean body weight determinations of drug treated and control animals were made during the treatment period as an indicator of sublethal toxicity. Deaths were recorded through day 45.

host cell = conditions: literature, Oftebro et al., Oyen et al.; cited from earlier work
[6] = Cytotoxicity / cell proliferation in KB cells (Example 8 Part B); assay type: cell-based, human; conditions: human, kb cells, 72 hour exposure
Procedure: (§4) To compare the toxicity of FPdR and IPdR human nasopharyngeal carcinoma KB cells obtained from the American Type Culture Collection were maintained as a monolayer in RPMI 1640 supplemented with 5% fetal bovine serum, 10 mM HEPES buffer (pH 7.4) and karamycin (100 μg/ml). Cells were maintained at 37° C. in a humidified atmosphere of 5% CO2 in air. Cell numbers were determined with an electronic particle counter (Particle Data, Inc., Elmhurst, Ill.).
(§5) For determination of drug effect on cell proliferation, cells were harvested from rapidly proliferting cultures by treatment with pancreation. Cell number was determined and plated in 24 well (6 mm well diameter) plates at a concentratin of 5×10^3 cells/ml. Drug exposures were initiated by a complete change of medium after overnight incubation. Following a 72 hour drug exposure […]. of thiazolyl blue was added and incubated for a further 4 hour period. The media from the plates was aspirated completely and […] DMSO was added to each well. The plates were placed on a shaker for 5 minutes and the blue solution transferred to 96 well plates and read at 540 nm with a scanning multiwell spectrophotometer (Biotek Instruments, Inc. Burlington, Vt.).

[7] = test system: human nasopharyngeal carcinoma KB cells; assay: as above; assay type: cell-based
Procedure: as §4, §5

HSV-2 (strain 333) [8] = assay: Antiviral activity, HSV-2 plaque reduction (Example 8 Part A); assay type: cell-based
Procedure: The effects of 1-(2-Deoxy-β-D-ribofuranosyl)-5-iodo-2-pyrimidinone (IPdR) of Example 3 were compared with 1-(2-Deoxy-β-D-ribofuranosyl)-5-fluoro-2-pyrimidinone (FPdR) on HSV-2 (strain 333) in […]. Twenty four well plates (sterile) were plated with 10^6 Vero cells/well the day before infecting. 250 PFU of HSV-2 were used in each well. The test compounds, IPdR and FPdR, were added at zero times of post infection and the cultures incubated at 37° C. for 48 hours. At the end of the incubation period the media was removed from Vero cells. Plates were strained with 0.8% crystal violet in 50% ethanol for 15 minutes. The plaque was counted.

bone marrow = conditions: cited from earlier work
nucleotidases = conditions: systemic administration; cited from earlier work
[9] = intravenous injection; cited from earlier work
[10] = test system: herpatic lesions of the skin; conditions: topical; cited from earlier work
[11] = 50 micromolar, vs untreated control
[12] = Human alphaherpesvirus 1, 5 μM, read-out: plaque-forming units as % of control
[13] = Human alphaherpesvirus 1, read-out: plaque-forming units as % of control
[14] = 40 mg/kg oral, 2 × 21/2, 72 hours after implant
[15] = 40 mg/kg oral, 2 × 21/2, innoculation dose 1 × 10^6 PFU

Work on `Cc1cnc(=O)n(C2C[C@H](O)[C@@H](CO)O2)c1` (stereo in doubt) [methyl compound, 1-(2-Deoxy-α-D-ribofuranosyl)-5-(methyl)-2-pyrimidinone] yielded an inhibition at 50 µM (HSV-2; [11]) of 87.9%, an inhibition at 100 µM (HSV-2; 100 micromolar) of 98.3% and an inhibition at 50 µM (HSV-1; [11]) of 95.5%. It also gave an inhibition at 100 µM (HSV-1; 100 micromolar) of 99%.
In the case of `O=c1ncc(Br)cn1[C@@H]1O[C@H](CO)[C@@H](O)[C@H]1O` [5-bromo], the “anti-tumor activity” value (murine leukemia L 1210) is given as “lack of anti-tumor activity”.
In the case of `O=c1ncc(Cl)cn1[C@@H]1O[C@H](CO)[C@@H](O)[C@H]1O` [5-chloro], the “anti-tumor activity” value (murine leukemia L 1210) is given as “lack of anti-tumor activity”.
For `O=c1ncc(F)cn1[C@@H]1O[C@H](CO)[C@@H](O)[C@H]1O` [5-fluoro riboside, 5-fluoro-pyrimidin-2-one riboside], the “anti-viral activity” value (virus) is given as “possessing anti-viral activity” and the “anti-tumor activity” value (murine leukemia L 1210) is given as “only the 5-fluoro was active”.
`Nc1nc2c(ncn2COCCO)c(=O)[nH]1` [ACG, acyclovir, reference compound] showed an activity at 5 µM [1] of 0.7%, an activity at 5 µM (PFA-resistant strains) of 100% and an activity at 5 µM (HSV-1 (CLl0l); [12]) of 4%. For the same molecule, the activity at 5 µM [2] was 100%, the activity at 5 µM [3] was 85% and the activity at 5 µM (HSV-1 (KOS); [12]) was 6.5%.
`O=c1[nH]c(=O)n([C@H]2C[C@H](O)[C@@H](CO)O2)cc1/C=C/Br` [BVdU, (bromovinyl) deoxyuridine, reference compound] showed an activity at 30 µM [1] of 52%, an activity at 30 µM (HSV-2 (333); Human alphaherpesvirus 2, read-out: plaque-forming units as % of control) of 1.7% and an activity at 30 µM (HSV-1 (CLl0l); [13]) of 0.4%. For the same molecule, the activity at 30 µM [2] was 3.7%, the activity at 30 µM [3] was 0.8% and the activity at 30 µM (HSV-1 (KOS); [13]) was 0.1%.
In the case of `O=c1ncc(Br)cn1[C@H]1C[C@H](O)[C@@H](CO)O1` [BrPdR, 1-(2-Deoxy-β-D-ribofuranosyl)-5-(bromo)-2-pyrimidinone], the activity at 100 µM (HSV-2 (333); Human alphaherpesvirus 2, 100 μM, read-out: plaque-forming units as % of control) is reported as 4.5%, the “antiherpes / anti-viral activity (words)” value [4] is reported as “significant antiherpes activities” and the activity at 100 µM (HSV-2 (CEU-G)) is reported as 7.1%. The activity at 100 µM (HSV-1 (KOS); Human alphaherpesvirus 1, 100 μM, read-out: plaque-forming units as % of control) was 0.6%.
With `Nc1nc2c(ncn2COC(CO)CO)c(=O)[nH]1` [DHPG, Dihydroxy propoxymethyl guanine, reference compound] the Survivors/Total (HSV-2 (Strain 333) [5]; 40 mg/kg oral, 2 × 21/2) was 20/20, the percent survival (HSV-2 (Strain 333) [5]; 40 mg/kg oral, 2 × 21/2) was 100% and the Survivors/Total (HSV-2 (Strain 333) [5]; [14]) was 5/5. For the same molecule, the percent survival (HSV-2 (Strain 333) [5]; [14]) was 100%, the “Mean Survival Time” value (HSV-2 (Strain 333) [5]; 40 mg/kg oral, 2 × 21/2, control 9.8 ± 1.3) was greater than 45 days and the “Mean Survival Time” value (HSV-2 (Strain 333) [5]; 40 mg/kg oral, 2 × 21/2, control 10.6 ± 2.1) was greater than 45 days. The Survivors/Total (HSV-2 (Strain 333) [5]; [15]) was 2/5, the percent survival (HSV-2 (Strain 333) [5]; [15]) was 40% and the “Mean Survival Time (days), of the mice that died” value (HSV-2 (Strain 333) [5]; 40 mg/kg oral, 2 × 21/2, innoculation dose 1 × 10^6 PFU, control 10.0 ± 1.2) was 20.0 ± 7.0 days. The “% ILS” value (HSV-2 (Strain 333) [5]; [15]) was 200%.
For `C#Cc1cnc(=O)n([C@H]2C[C@H](O)[C@@H](CO)O2)c1` [EPdR], the Survivors/Total (HSV-2 (Strain 333) [5]; 100 mg/kg IP, 1 × 5) was 1/5, the percent survival (HSV-2 (Strain 333) [5]; 100 mg/kg IP, 1 × 5) was 20% and the “Mean Survival Time (days), of the mice that died” value (HSV-2 (Strain 333) [5]; 100 mg/kg IP, 1 × 5, control 9.6 ± 1.1) was 9.0 ± 0.8 days. The “% ILS” value (HSV-2 (Strain 333) [5]; 100 mg/kg IP, 1 × 5) was 94%.
For `O=c1ncc(F)cn1[C@H]1C[C@H](O)[C@@H](CO)O1` [FPdR, 1-(2-Deoxy-β-D-ribofuranosyl)-5-fluoro-2-pyrimidinone], the “toxicity to the host cell versus virus” value (host cell) is given as “more toxic to the host cell than to the virus”, the “anti-viral activity” value (virus) is given as “exhibiting anti-viral activity” and the activity at 72 h, 1 µM ([6]; 1.0 μm, read-out: % Growth) is given as 102%. For the same molecule, the activity at 72 h, 10 µM ([6]; 10 μm, read-out: % Growth) was 84%, the activity at 72 h, 25 µM ([6]; 25 μm, read-out: % Growth) was 49% and the activity at 72 h, 50 µM ([6]; 50 μm, read-out: % Growth) was 21%. The IC50 at 72 h ([6]; cytotoxicity, read-out: ID50) was 25 µM, the “toxicity against the host cells” value [7] was “significantly greater than IPdR” and the “toxicity against the host cells” value ([7]; listed as 5-fluoro deoxyriboside) was “more toxic to the host than to the virus”. The “antiviral activity, comparison of IPdR and FPdR” value (HSV-2 (strain 333) [8]) was “comparable in antiviral activity” and the inhibition at 100 µM (HSV-2 (strain 333) [8]; Human alphaherpesvirus 2, Vero, 100 μM, 48 hours) was 50.5%.
In the case of `O=c1[nH]c(=O)n([C@H]2C[C@H](O)[C@@H](CO)O2)cc1I` [idoxuridine, 5-iodo-2'-deoxyuridine], the “toxicities upon systemic administration” value (bone marrow) is listed as “bone marrow depression”, the “inactivation by nucleotidases” value (nucleotidases) is listed as “rapidly inactivated by nucleotidases” and the “disappearance of most of the active form from the blood” value [9] is listed as “about thirty”. For the same molecule, the “response of herpatic lesions of the skin” value [10] was “do not respond”.
